Source: ChEMBL document CHEMBL5356977, “Exploration of macrocyclic peptide binders to the extracellular CRD domain of human receptor tyrosine kinase-like orphan receptor 1 (ROR1)” (Bioorg Med Chem Lett, 2024)
Values belong to the compound of their own block, whether it stands above or below them. Active and inactive are the calls of the source. The calls are words filed in the database; no cut-off is given here. Numbered stars: 1 amine (or outer) side, 2 acyl side, 3 side chain; on linkers, the order of the positions; unused ones are H or OH. Bridge positions count the residues as written; N and C are the ends. Square brackets hold non-standard residues; d marks the D form. Peptide text beside a SMILES is read from it. X1 = CN([C@@H](CC(N)O)C(=O)[*:2])[*:1]; NMeF = CN[C@@H](Cc1ccccc1)C(=O)O; Hpg = N[C@H](C(=O)O)c1ccc(O)cc1

Tests used:
[1] = target: T1, Inactive tyrosine-protein kinase transmembrane receptor ROR1 (Homo sapiens, UniProt Q01973); assay: Induction of ROR1 internalization in human MIA PaCa-2; format: cell-based
[2] = target: Tyrosine-protein kinase transmembrane receptor ROR2 (Homo sapiens, UniProt Q01974); assay: Binding affinity to full length human His-tagged ROR2 (943 residues ) assessed as dissociation constant by SPR analysis
[3] = target: T1, Inactive tyrosine-protein kinase transmembrane receptor ROR1; assay: Binding affinity to full length human His-tagged ROR1 (937 residues ) assessed as dissociation constant by SPR analysis
[4] = target: T1, Inactive tyrosine-protein kinase transmembrane receptor ROR1; assay: Induction of ROR1 internalization in human 786-0; format: cell-based
[5] = target: T1, Inactive tyrosine-protein kinase transmembrane receptor ROR1; assay: Binding affinity to human ROR1 harbouring CRD domain at 100 nM relative to control
[6] = target: T1, Inactive tyrosine-protein kinase transmembrane receptor ROR1; assay: Induction of ROR1 internalization in human 786-0 cells at 4 to 37 degreeC; format: cell-based
[7] = target: T1, Inactive tyrosine-protein kinase transmembrane receptor ROR1; assay: Binding affinity to human ROR1 harbouring IGt2 domain at 100 nM relative to control
[8] = target: T1, Inactive tyrosine-protein kinase transmembrane receptor ROR1; assay: Binding affinity to ROR1 (unknown origin)
[9] = target: T1, Inactive tyrosine-protein kinase transmembrane receptor ROR1; assay: Binding affinity to human ROR1 expressed in HEK293 cells by cell based assay
[10] = Proteolytic stability in mouse serum assessed as half life; format: ADME, cell-free
[11] = target: T1, Inactive tyrosine-protein kinase transmembrane receptor ROR1; assay: Induction of ROR1 internalization in human MDA-MB-231; format: cell-based
[12] = […] stability in mouse serum assessed as half life; format: ADME, cell-free
MIA PaCa-2 = assay: Induction of apoptosis in human MIA PaCa-2 cells assessed as activation of caspase3/7; format: functional, cell-based

Sequence of Tyrosine-protein kinase transmembrane receptor ROR2 (Q01974 whole entry): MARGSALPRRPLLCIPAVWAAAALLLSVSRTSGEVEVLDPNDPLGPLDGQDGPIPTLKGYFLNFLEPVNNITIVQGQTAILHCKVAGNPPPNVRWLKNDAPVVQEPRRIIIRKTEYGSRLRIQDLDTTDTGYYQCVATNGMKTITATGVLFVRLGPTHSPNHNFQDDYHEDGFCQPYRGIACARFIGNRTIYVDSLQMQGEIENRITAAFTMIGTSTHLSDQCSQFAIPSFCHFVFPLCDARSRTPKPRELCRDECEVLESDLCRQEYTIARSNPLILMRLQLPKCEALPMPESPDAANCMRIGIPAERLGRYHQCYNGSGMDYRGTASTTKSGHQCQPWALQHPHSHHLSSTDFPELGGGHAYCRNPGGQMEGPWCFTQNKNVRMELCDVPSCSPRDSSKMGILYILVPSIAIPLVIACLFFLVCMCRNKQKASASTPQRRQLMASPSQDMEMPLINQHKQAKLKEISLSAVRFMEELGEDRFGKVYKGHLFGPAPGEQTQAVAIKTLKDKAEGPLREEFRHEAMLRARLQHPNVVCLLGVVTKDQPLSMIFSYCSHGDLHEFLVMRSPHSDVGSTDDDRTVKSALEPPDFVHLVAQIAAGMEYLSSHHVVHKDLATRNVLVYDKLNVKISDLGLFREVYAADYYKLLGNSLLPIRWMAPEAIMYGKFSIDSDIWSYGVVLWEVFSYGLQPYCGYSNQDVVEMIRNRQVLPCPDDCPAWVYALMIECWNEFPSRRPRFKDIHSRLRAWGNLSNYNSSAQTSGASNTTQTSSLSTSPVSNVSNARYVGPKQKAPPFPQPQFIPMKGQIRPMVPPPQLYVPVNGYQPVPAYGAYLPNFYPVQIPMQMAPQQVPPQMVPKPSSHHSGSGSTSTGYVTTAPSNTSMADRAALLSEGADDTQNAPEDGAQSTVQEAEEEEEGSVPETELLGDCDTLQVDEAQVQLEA
T1 sequence (Q01973 whole entry): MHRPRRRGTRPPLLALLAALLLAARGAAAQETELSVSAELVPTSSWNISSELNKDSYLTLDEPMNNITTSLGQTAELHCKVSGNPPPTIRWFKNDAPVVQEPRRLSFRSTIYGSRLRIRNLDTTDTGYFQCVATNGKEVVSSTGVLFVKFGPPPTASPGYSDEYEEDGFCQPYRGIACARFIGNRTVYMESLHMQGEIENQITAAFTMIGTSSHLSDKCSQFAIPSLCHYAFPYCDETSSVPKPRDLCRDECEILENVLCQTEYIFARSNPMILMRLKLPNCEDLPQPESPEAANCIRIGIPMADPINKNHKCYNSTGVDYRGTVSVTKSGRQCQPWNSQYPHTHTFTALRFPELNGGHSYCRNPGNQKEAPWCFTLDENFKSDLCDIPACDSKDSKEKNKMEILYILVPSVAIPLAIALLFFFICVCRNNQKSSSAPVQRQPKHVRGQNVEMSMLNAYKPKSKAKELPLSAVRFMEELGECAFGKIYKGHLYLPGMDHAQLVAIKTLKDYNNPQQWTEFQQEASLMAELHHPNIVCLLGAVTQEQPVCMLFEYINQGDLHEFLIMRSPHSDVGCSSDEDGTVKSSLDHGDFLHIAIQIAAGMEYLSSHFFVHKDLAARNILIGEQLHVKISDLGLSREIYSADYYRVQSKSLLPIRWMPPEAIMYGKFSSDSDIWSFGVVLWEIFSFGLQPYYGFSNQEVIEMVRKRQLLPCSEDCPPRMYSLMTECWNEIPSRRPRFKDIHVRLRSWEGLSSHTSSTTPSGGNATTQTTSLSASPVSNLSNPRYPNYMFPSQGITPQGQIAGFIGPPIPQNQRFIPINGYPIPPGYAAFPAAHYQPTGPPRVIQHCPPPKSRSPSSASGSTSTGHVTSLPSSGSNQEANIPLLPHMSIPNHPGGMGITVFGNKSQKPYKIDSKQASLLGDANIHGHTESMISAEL

Compound: CC(C)C[C@@H]1NC(=O)[C@H](Cc2ccc(O)cc2)NC(=O)[C@H](Cc2ccccc2)NC(=O)CSC[C@@H](C(=O)NCC(=O)NCC(=O)NCC(=O)N[C@H](CCCCNC(=O)c2ccc3c(c2)C(=O)OC32c3ccc(O)cc3Oc3cc(O)ccc32)C(N)=O)NC(=O)[C@H](CC(C)C)NC(=O)[C@H](Cc2ccccc2)N(C)C(=O)[C@H](Cc2ccc(O)cc2)NC(=O)[C@H](Cc2c[nH]c3ccccc23)NC(=O)CNC(=O)[C@H](CO)NC(=O)[C@H](Cc2ccc(O)cc2)NC(=O)[C@H](C(C)C)NC1=O
Activity [1]: inactive | Kd [2]: > 100 nM | Kd [3]: 34 nM | Activity [4]: inactive

Compound: CC(C)C[C@@H]1NC(=O)[C@H](Cc2ccc(O)cc2)NC(=O)[C@H](Cc2ccccc2)NC(=O)CSC[C@@H](C(=O)NCC(N)=O)NC(=O)[C@H](CC(C)C)NC(=O)[C@H](Cc2ccccc2)N(C)C(=O)[C@H](Cc2ccc(O)cc2)NC(=O)[C@H](Cc2c[nH]c3ccccc23)NC(=O)CNC(=O)[C@H](CO)NC(=O)[C@H](Cc2ccc(O)cc2)NC(=O)[C@H](C)NC1=O ({CH2CO}-FYLAYSGWY[NMeF]LCG-NH2; thioether N-12)
IC50 [9]: 12.3 nM

Compound: CC(C)C[C@@H]1NC(=O)[C@H](Cc2ccc(O)cc2)NC(=O)[C@H](Cc2ccccc2)NC(=O)CSC[C@@H](C(=O)NCC(N)=O)NC(=O)[C@H](CC(C)C)NC(=O)[C@H](Cc2ccccc2)N(C)C(=O)[C@H](Cc2ccc(O)cc2)NC(=O)[C@H](Cc2c[nH]c3ccccc23)NC(=O)CNC(=O)[C@H](CC(=O)O)NC(=O)[C@H](Cc2ccc(O)cc2)NC(=O)[C@H](C(C)C)NC1=O ({CH2CO}-FYLVYDGWY[NMeF]LCG-NH2; thioether N-12)
IC50 [9]: 14.4 nM

Compound: CC(C)C[C@@H]1NC(=O)[C@H](Cc2ccc(O)cc2)NC(=O)[C@H](Cc2ccccc2)NC(=O)CSC[C@@H](C(N)=O)NC(=O)[C@H](CC(C)C)NC(=O)[C@H](Cc2ccccc2)N(C)C(=O)[C@H](Cc2ccc(O)cc2)NC(=O)[C@H](Cc2c[nH]c3ccccc23)NC(=O)CNC(=O)[C@H](CO)NC(=O)[C@H](Cc2ccc(O)cc2)NC(=O)[C@H](C(C)C)NC1=O ({CH2CO}-FYLVYSGWY[NMeF]LC-NH2; thioether N-12)
IC50 [9]: 7.2 nM

The next lines start with results.

Kd [2]: > 11 nM | Activity [5]: 125% | Activity [6]: Active | Kd [3]: 22 nM | Activity [7]: 75% | IC50 [8]: 66 nM
Compound: CC(C)C[C@@H]1NC(=O)[C@H](CC(N)O)N(C)C(=O)[C@H](Cc2ccccc2)NC(=O)CNC(=O)[C@H](Cc2ccc(O)cc2)NC(=O)[C@H](Cc2ccccc2)NC(=O)CSC[C@@H](C(N)=O)NC(=O)[C@H](Cc2c[nH]c3ccccc23)NC(=O)[C@H](Cc2ccc(O)cc2)NC1=O (some centres undefined) ({CH2CO}-FYGF[X1]LYWC-NH2; thioether N-9)

IC50 [9]: 5.3 nM
Compound: CC(C)C[C@@H]1NC(=O)[C@H](Cc2ccc(O)cc2)NC(=O)[C@H](Cc2ccccc2)NC(=O)CSC[C@@H](C(=O)NCC(N)=O)NC(=O)[C@H](C(C)C)NC(=O)[C@H](Cc2ccccc2)N(C)C(=O)[C@H](c2ccc(O)cc2)NC(=O)[C@H](Cc2c[nH]c3ccccc23)NC(=O)CNC(=O)[C@H](CC(N)=O)NC(=O)[C@H](Cc2ccc(O)cc2)NC(=O)[C@H](C(C)C)NC1=O ({CH2CO}-FYLVYNGW[Hpg][NMeF]VCG-NH2; thioether N-12)

IC50 [9]: 7.2 nM
Compound: CC(C)C[C@@H]1NC(=O)[C@H](Cc2ccc(O)cc2)NC(=O)[C@H](Cc2ccccc2)NC(=O)CSC[C@@H](C(=O)NCC(N)=O)NC(=O)[C@H](CC(C)C)NC(=O)[C@H](Cc2ccccc2)N(C)C(=O)[C@H](Cc2ccc(O)cc2)NC(=O)[C@H](Cc2c[nH]c3ccccc23)NC(=O)CNC(=O)[C@H](CCC(N)=O)NC(=O)[C@H](Cc2ccc(O)cc2)NC(=O)[C@H](C(C)C)NC1=O ({CH2CO}-FYLVYQGWY[NMeF]LCG-NH2; thioether N-12)

Kd [2]: 43 nM | half-life [10]: > 24 h | Activity [5]: 104% | Activity [11]: Active | Activity [6]: Active | Activity [7]: 68% | Activity [4]: Active | half-life [12]: > 24 h
Compound: CC(C)C[C@@H]1NC(=O)[C@H](Cc2ccc(O)cc2)NC(=O)[C@H](Cc2ccccc2)NC(=O)CSC[C@@H](C(=O)NCC(N)=O)NC(=O)[C@H](CC(C)C)NC(=O)[C@H](Cc2ccccc2)N(C)C(=O)[C@H](Cc2ccc(O)cc2)NC(=O)[C@H](Cc2c[nH]c3ccccc23)NC(=O)CNC(=O)[C@H](CO)NC(=O)[C@H](Cc2ccc(O)cc2)NC(=O)[C@H](C(C)C)NC1=O ({CH2CO}-FYLVYSGWY[NMeF]LCG-NH2; thioether N-12)
Activity (MIA PaCa-2): inactive
